How the values were obtained:
Assay in all cases: relative viability (nuclei count vs DMSO), 5 days (fraction); higher = more cells survive
[1] = test system: SW 1573
Outline: (§1)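 Values are medians from duplicate plates. Each reflects relative viability, defined as the nuclei count of treated wells over that of vehicle wells. Lung cancer cell lines in 1536-well plates were pin-tool dosed one day after seeding with one drug alone or with a fixed anchor-drug dose plus five library-drug doses (not always all listed) in √10 steps, then fixed, stained and imaged at 4× after 5 days.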

[2] = test system: LU99A
Outline: as §1

[3] = test system: RERF-LC-KJ
Outline: as §1

[4] = test system: HCC-78
Outline: as §1

[5] = test system: SW 900
Outline: as §1

[6] = test system: NCI-H2342
Outline: as §1

[7] = test system: EPLC-272H
Outline: as §1

[8] = test system: NCI-H1666
Outline: as §1

[9] = test system: HCC-827
Outline: as §1

[10] = test system: NCI-H23
Outline: as §1

[11] = test system: EMC-BAC-2
Outline: as §1

[12] = test system: NCI-H1563
Outline: as §1

[13] = test system: LXF-289
Outline: as §1

[14] = test system: ChaGo-K-1
Outline: as §1

[15] = test system: LCLC-103H
Outline: as §1

[16] = test system: PC-14
Outline: as §1

[17] = test system: NCI-H1975
Outline: as §1

[18] = test system: LK-2
Outline: as §1

[19] = test system: SK-LU-1
Outline: as §1

[20] = test system: EKVX
Outline: as §1

[21] = test system: NCI-H322M
Outline: as §1

[22] = test system: NCI-H2126
Outline: as §1

[23] = test system: NCI-H2405
Outline: as §1

## O=c1cc(N2CCOCC2)oc2c(-c3cccc4c3sc3ccccc34)cccc12 + N=C(N)NC(=N)NCCc1ccccc1 [Phenformin] (partner 250 µM)
[1]; first compound 0.01 µM
  relative viability: 0.451
[1]; first compound 0.03162 µM
  relative viability: 0.395
[1]; first compound 0.1 µM
  relative viability: 0.426
[1]; first compound 0.3162 µM
  relative viability: 0.326
[1]; first compound 1 µM
  relative viability: 0.343
[2]; first compound 0.01 µM
  relative viability: 0.558
[2]; first compound 0.03162 µM
  relative viability: 0.833
[2]; first compound 0.1 µM
  relative viability: 0.925
[2]; first compound 0.3162 µM
  relative viability: 0.833
[2]; first compound 1 µM
  relative viability: 0.887
[3]; first compound 0.01 µM
  relative viability: 0.429
[3]; first compound 0.03162 µM
  relative viability: 0.413
[3]; first compound 0.1 µM
  relative viability: 0.412
[3]; first compound 0.3162 µM
  relative viability: 0.418
[3]; first compound 1 µM
  relative viability: 0.427
[4]; first compound 0.01 µM
  relative viability: 0.738
[4]; first compound 0.03162 µM
  relative viability: 0.652
[4]; first compound 0.1 µM
  relative viability: 0.388
[4]; first compound 0.3162 µM
  relative viability: 0.622
[4]; first compound 1 µM
  relative viability: 0.627
[5]; first compound 0.01 µM
  relative viability: 0.291
[5]; first compound 0.03162 µM
  relative viability: 0.635
[5]; first compound 0.1 µM
  relative viability: 0.485
[5]; first compound 0.3162 µM
  relative viability: 0.551
[5]; first compound 1 µM
  relative viability: 0.56
[6]; first compound 0.01 µM
  relative viability: 0.575
[6]; first compound 0.03162 µM
  relative viability: 0.59
[6]; first compound 0.1 µM
  relative viability: 0.601
[6]; first compound 0.3162 µM
  relative viability: 0.621
[6]; first compound 1 µM
  relative viability: 0.576
[7]; first compound 0.01 µM
  relative viability: 0.394
[7]; first compound 0.03162 µM
  relative viability: 0.316
[7]; first compound 0.3162 µM
  relative viability: 0.286
[7]; first compound 1 µM
  relative viability: 0.298
[8]; first compound 0.01 µM
  relative viability: 0.566
[8]; first compound 0.03162 µM
  relative viability: 0.607
[8]; first compound 0.1 µM
  relative viability: 0.526
[8]; first compound 0.3162 µM
  relative viability: 0.54
[8]; first compound 1 µM
  relative viability: 0.584
[9]; first compound 0.01 µM
  relative viability: 0.368
[9]; first compound 0.03162 µM
  relative viability: 0.391
[9]; first compound 0.1 µM
  relative viability: 0.396
[9]; first compound 0.3162 µM
  relative viability: 0.405
[9]; first compound 1 µM
  relative viability: 0.402
[10]; first compound 0.01 µM
  relative viability: 0.83
[10]; first compound 0.03162 µM
  relative viability: 0.801
[10]; first compound 0.3162 µM
  relative viability: 0.792
[10]; first compound 1 µM
  relative viability: 0.806
[11]; first compound 0.01 µM
  relative viability: 0.423
[11]; first compound 0.03162 µM
  relative viability: 0.57
[11]; first compound 0.1 µM
  relative viability: 0.55
[11]; first compound 0.3162 µM
  relative viability: 0.556
[11]; first compound 1 µM
  relative viability: 0.564
[12]; first compound 0.01 µM
  relative viability: 0.644
[12]; first compound 0.03162 µM
  relative viability: 0.733
[12]; first compound 0.1 µM
  relative viability: 0.635
[12]; first compound 0.3162 µM
  relative viability: 0.671
[12]; first compound 1 µM
  relative viability: 0.612
[13]; first compound 0.01 µM
  relative viability: 0.523
[13]; first compound 0.03162 µM
  relative viability: 0.55
[13]; first compound 0.1 µM
  relative viability: 0.457
[13]; first compound 0.3162 µM
  relative viability: 0.498
[13]; first compound 1 µM
  relative viability: 0.529
[14]; first compound 0.01 µM
  relative viability: 0.401
[14]; first compound 0.03162 µM
  relative viability: 0.579
[14]; first compound 0.1 µM
  relative viability: 0.386
[14]; first compound 0.3162 µM
  relative viability: 0.547
[14]; first compound 1 µM
  relative viability: 0.468
[15]; first compound 0.01 µM
  relative viability: 0.317
[15]; first compound 0.03162 µM
  relative viability: 0.31
[15]; first compound 0.1 µM
  relative viability: 0.331
[15]; first compound 0.3162 µM
  relative viability: 0.377
[15]; first compound 1 µM
  relative viability: 0.341
[16]; first compound 0.01 µM
  relative viability: 0.292
[16]; first compound 0.03162 µM
  relative viability: 0.758
[16]; first compound 0.1 µM
  relative viability: 0.428
[16]; first compound 0.3162 µM
  relative viability: 0.902
[16]; first compound 1 µM
  relative viability: 0.361
[17]; first compound 0.01 µM
  relative viability: 0.414
[17]; first compound 0.03162 µM
  relative viability: 0.439
[17]; first compound 0.1 µM
  relative viability: 0.408
[17]; first compound 0.3162 µM
  relative viability: 0.397
[17]; first compound 1 µM
  relative viability: 0.418
[18]; first compound 0.01 µM
  relative viability: 0.593
[18]; first compound 0.03162 µM
  relative viability: 0.404
[18]; first compound 0.1 µM
  relative viability: 0.573
[18]; first compound 0.3162 µM
  relative viability: 0.38
[18]; first compound 1 µM
  relative viability: 0.361
[19]; first compound 0.01 µM
  relative viability: 0.573
[19]; first compound 0.03162 µM
  relative viability: 0.551
[19]; first compound 0.1 µM
  relative viability: 0.531
[19]; first compound 0.3162 µM
  relative viability: 0.509
[19]; first compound 1 µM
  relative viability: 0.45
[20]; first compound 0.01 µM
  relative viability: 0.228
[20]; first compound 0.03162 µM
  relative viability: 0.238
[20]; first compound 0.1 µM
  relative viability: 0.201
[20]; first compound 0.3162 µM
  relative viability: 0.216
[20]; first compound 1 µM
  relative viability: 0.199
[21]; first compound 0.01 µM
  relative viability: 0.75
[21]; first compound 0.03162 µM
  relative viability: 0.781
[21]; first compound 0.1 µM
  relative viability: 0.395
[21]; first compound 0.3162 µM
  relative viability: 0.814
[21]; first compound 1 µM
  relative viability: 0.668
[22]; first compound 0.01 µM
  relative viability: 0.513
[22]; first compound 0.03162 µM
  relative viability: 0.547
[22]; first compound 0.1 µM
  relative viability: 0.53
[22]; first compound 0.3162 µM
  relative viability: 0.554
[22]; first compound 1 µM
  relative viability: 0.515
[23]; first compound 0.01 µM
  relative viability: 0.364
[23]; first compound 0.03162 µM
  relative viability: 0.38
[23]; first compound 0.1 µM
  relative viability: 0.356
[23]; first compound 0.3162 µM
  relative viability: 0.424
[23]; first compound 1 µM
  relative viability: 0.404

From the supplement of paper PMC10307832
